Measurements reported in US9169519B2, “SUMO as a marker of cancer development and target for cancer therapy” (Duke University, priority 2010, dated 2015).

Test system: F98 rat glioblastoma cells
Assay: 3H-thymidine incorporation into DNA (DNA synthesis), with or without radiation
Format: cell-based
Details: 100 nM 4-HT versus vehicle, no radiation (FIG. 6B)
Procedure: To investigate whether DNA synthesis of glioblastoma cells is modified by SUMO conjugation, the effects of suppressing SUMO conjugation on the incorporation of ^3H-thymidine into DNA was evaluated. SUMO conjugation was suppressed by blocking its expression using a miRNA approach. To avoid the risk of adaptive processes taking place in cells where SUMO expression had been silenced during the long selection process for stably transfected cells, a 4-hydroxy tamoxifen (4-HT)-inducible lentiviral system was used to express designed miRNAs (Callus et al., Cell Death Diff. 15: 213-219 (2008)). Briefly, the 4-HT inducible lentiviral system utilizes two constructs and the UAS/GAL4 system. […]
The effect of SUMO1/2/3 miRNA expression on radiation induced impairment of DNA synthesis was investigated by measuring the uptake of ^3H-thymidine. […] Irradiated cells were detached with trypsin-EDTA (Fisher Scientific), counted, re-suspended in culture medium with supplements described above, and re-plated in a 96-well plate at a density of 10,000 cells per well. […] Cells were harvested 24 hr later following detachment with trypsin-EDTA, collected on filter paper, dried overnight, and immersed in scintillation cocktail (ICN Biochemicals), and counted for 10 min in a liquid scintillation counter. […]

In the case of 4-hydroxy tamoxifen [4-HT], the “3H-thymidine incorporation into DNA” value is reported as “did not produce any major change”.
